Results as given in article PMC8689140 (Frontiers in Pharmacology, 2021).

How the values were obtained:
rhCYP CYP2C9 = test system: T1, rhCYP CYP2C9; test: P450 phenotyping, rhCYP isozymes, CYP2C9; type: in vitro ADME, human; conditions: rhCYP2C9 probe substrate, 1 µM
T1 construct: purchased Corning Co., Ltd (Shanghai, China)
Source text: (§1) According to the result of metabolite identification, three metabolites were selected as the targets for metabolic phenotyping. Seven CYP isozymes (CYP1A2, CYP2B6, CYP2C8, CYP2C9, CYP2C19, CYP2D6, and CYP3A4) were investigated using two kinds of methods: chemical inhibitors in human liver microsomes (HLMs) method (Experiment 1) and rhCYP isozymes method (Experiment 2).
Experiment 2: Each rhCYP isozyme was thawed and diluted as above method. As positive controls, the probe substrates of each P450 isozyme were tested under the same conditions. […] Vx ([…]) is the production rate of metabolites for each rhCYP isozyme.

CYP2C9 = test system: T2, CYP2C9; test: P450 phenotyping, chemical inhibitors in HLMs, CYP2C9; type: in vitro ADME, human; conditions: CYP2C9 probe substrate, 5 µM, specific inhibitor
T2 construct: tissue Corning Co., Ltd (Shanghai, China); host or cells: human liver microsomes
Protocol: as §1
Experiment 1: HLMs were thawed on ice and diluted in100 mM sodium phosphate buffer (pH 7.4) containing 3 mM magnesium chloride. […] After 10 min of preincubation at 37°C, the reactions were initiated by adding 20 µL of NADPH (10 mM) and then incubated at 37 °C in a shaking water bath for 30 min. The samples were prepared in triplicates. The reactions were terminated by adding 600 µL of ice-cold acetonitrile and stored at −20°C until analysis. Control samples without NADPH and 0-time point samples were included. As positive controls, the probe substrates of each P450 isozyme under the same conditions were tested, and specific inhibitors was added. Next, the samples were centrifuged at 13,000 rpm for 10 min, the supernatants were determined by LC–MS/MS.

Q: For O=C(O)Cc1ccccc1Nc1c(Cl)cccc1Cl [Diclofenac], which “CL int in rhCYP” value (rhCYP CYP2C9) is on record?
A: 6.15 µL/min/pmol

Q: What about the “%Inhibation in HLM” value (CYP2C9) of the same compound?
A: 89.9%
